Source: article PMC10740270, “In-silico guided chemical exploration of KDM4A fragments hits” (Clinical Epigenetics, 2023)
Values joined by “and” are separate entries in the source; they are usually repeats but may differ in a detail not shown here. Equal values may be shown once.

B1: KDM4A (Homo sapiens) (protein)
chain: MASESETLNPSARIMTFYPTMEEFRNFSRYIAYIESQGAHRAGLAKVVPPKEWKPRASYDDIDDLVIPAPIQQLVTGQSGLFTQYNIQKKAMTVREFRKIANSDKYCTPRYSEFEELERKYWKNLTFNPPIYGADVNGTLYEKHVDEWNIGRLRTILDLVEKESGITIEGVNTPYLYFGMWKTSFAWHTEDMDLYSINYLHFGEPKSWYSVPPEHGKRLERLAKGFFPGSAQSCEAFLRHKMTLISPLMLKKYGIPFDKVTQEAGEFMITFPYGYHAGFNHGFNCAESTNFATRRWIEYGKQAVLCSCRKDMVKISMDVFVRKFQPERYKLWKAGKDNTVIDHTLPTPEA

Assays:
[1] = biological target: T1, KDM4A (Homo sapiens, UniProt O75164); assay: Enzymatic HTRF-based assay, inhibition of H3K9me3 peptide demethylation; type: biochemical; conditions: for IC50: HTRF, H3K9me3 peptide, 0.5 µM 2-OG, 400 nM KDM4A, ± standard error of fit; for inhibition at 50 µM: read-out: Inhibition at 50 μM
T1 construct: encoding human KDM4A residues 1–350 with a GST-6xHis tag at the N-terminal; GST-6xHis (followed by TEV cleavage site) (N, cleaved yes); made in house; host or cells: T7 Express E. coli
T1 sequence (O75164 1-350): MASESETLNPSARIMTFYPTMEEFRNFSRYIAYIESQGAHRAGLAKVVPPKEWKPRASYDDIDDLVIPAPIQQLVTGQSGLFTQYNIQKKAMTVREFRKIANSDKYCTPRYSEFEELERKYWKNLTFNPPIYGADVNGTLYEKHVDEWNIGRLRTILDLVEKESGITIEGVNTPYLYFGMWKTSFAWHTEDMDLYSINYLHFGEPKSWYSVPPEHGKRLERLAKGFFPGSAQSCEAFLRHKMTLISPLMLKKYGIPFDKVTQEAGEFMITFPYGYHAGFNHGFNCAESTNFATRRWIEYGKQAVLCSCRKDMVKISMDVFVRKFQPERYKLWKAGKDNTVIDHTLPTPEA
Method: The plasmid pGEX4T2-JMJD2A encoding human KDM4A residues 1–350 with a GST-6xHis tag at the N-terminal, followed by Tobacco Etch Virus (TEV) cleavage site, was used for protein expression. The plasmid was used to transform T7 Express E.coli competent cells. Cells were grown in LB media supplemented with ampicillin (100 µg/mL) at 37 °C until the OD600 reached a value around 0.4. Flasks were then cooled down and, after induction by 0.2 mM ITPG at OD600 = 0.8, bacteria were grown at 18 °C for 20 h. After centrifugation at 8000 g (20 min at 4 °C) the obtained pellets were suspended in lysis buffer (20 mM TRIS pH = 8, 0.3 M NaCl, 10 mM imidazole, 5% glycerol, 1 mM DTT, 10 µg/mL DNAse, 0.5 mg/mL lysozyme, 0.5 mM PMSF, 2 cOmplete™ EDTA-free Protease Inhibitor Cocktail, 5 mM MgCl2) and incubated at 25 °C for 1 h. Sonication (1 s ON and 1 s OFF) on ice for 7 min at 48% amplitude was performed. 0.1% Triton X-100 was added and the lysate was incubated on ice for 15 min in agitation. Soluble and insoluble phase were separated by centrifugation at 15,000 rpm, 4 °C for 30 min. Soluble phase was filtered using a 0.45 um syringe filter and directly loaded in 2 × 5 mL His-trap FF Crude column (GE Healthcare) previously equilibrated with loading buffer (20 mM TRIS, pH = 8, 0.3 M NaCl, 1 mM DTT, 10 mM imidazole, 5% glycerol). A linear gradient elution by 500 mM imidazole was done to elute bound KDM4A. In order to remove the GST-6xHis tag and imidazole excess, the eluted KDM4A was incubated with His-tagged TEV-protease (molar ratio 20:1) and dialyzed against 20 mM TRIS, pH = pH 7.5, 0.3 M NaCl, 1 mM DTT overnight at 4 °C. Tag free KDM4A was recovered reloading the dialyzed sample onto a His-trap column and collecting the flow-through. Size exclusion chromatography was used as final polishing step using a Superdex 200 grade 16/600 pg column (GE Healthcare) pre-equilibrated with 10 mM Hepes, pH = 7.5, 150 mM NaCl, 5% glycerol, 0.5 mM TCEP. Fractions containing KDM4A were pooled and concentrated to 50–100 µM, flash frozen in liquid nitrogen, and stored at − 80 °C. Protein concentration was measured by using the predicted molar extinction coefficient (ε280 = 73,800 M^−1 cm^−1), and the purity verified by SDS-PAGE resulted > 95%.
Enzymatic HTRF-based assay was run in two steps: enzymatic reaction and detection. Optimal conditions for both steps were determined by considering: plate format, time and temperature of incubation, substrate and DMSO concentrations.
Dimethyl sulfoxide (DMSO, Sigma-Aldrich D58791) final concentration was 1%. The reaction mixture was incubated for 2 h at 20 °C in ½ area 96 well plates (ref. 6002290 m, Perkin Elmer).
For the detection step, 40 μl of HTRF reagents, H3K9 me2-Eu(K) Ab (Cisbio Bioassays, 61KB2KAE) and Streptavidin XL-665 (Cisbio Bioassays, 610SAXLA), prepared in detection buffer following manufacturer’s instruction (Cisbio Assays, 62SDBRDD), were added to each well and incubated o/n at 20 °C. Fluorescence was measured with a TECAN Spark reader (Männedorf, Switzerland), by setting excitation wavelength at 320 nm and emission wavelength at 620 and 665 nm.
Automation was performed using Bravo (Agilent) liquid handling system. Validation of the assay was performed following NIH guidelines. 2,4-pyridinedicarboxylic acid monohydrate (2,4-PDCA, Sigma Aldrich P63395) was used as positive control at Imax 10 µM, and Z’ was determined on 9 independent experiments always giving a value > 0.5. The following reference compounds were used as internal controls in the screening plates: 2,4-Pyridinedicarboxylic Acid, 8-hydroxyquinoline-5-carboxylic acid, pyrido[3,4-d]pyrimidin-4(3H)-one, 3-(ethylsulfonyl)-N-(4-(pyridin-2-yl)thiazol-2-yl)benzamide, 3-(ethylsulfonyl)-N-(4-(pyridin-2-yl)thiazol-2-yl)benzamide, 3-(methylsulfonyl)-N-(4-(pyridin-2-yl)thiazol-2-yl)benzamide.

[2] = biological target: T1, KDM4A; assay: Bio-layer interferometry (BLI) binding to biotinylated KDM4A; conditions: for Kd: BLI, 1:1 Langmuir global fit, 25 °C, 5% DMSO; for LE: ligand efficiency score; for LE / LLE: method of ref 58; for LLE: lipophilic ligand efficiency score
Excerpt: (§1) Bio-layer interferometry (BLI) was then used to determine the equilibrium dissociation constant (KD) for the binding event. QC6352 inhibitor [52] and N-[(2-Chloro-6-fluorophenyl)methyl]-2-(2,5-dioxo-4-phenyl-4-propylimidazolidin-1-yl)-N-methylacetamide were used as positive and negative control, respectively. […] Binding was also confirmed by Saturation-Transfer Difference (STD) NMR experiments (Additional file 1: Fig. S5).
Bio-layer Interferometry experiments Bio-layer Interferometry was employed to determine the equilibrium dissociation constant (KD) for compounds binding to KDM4A, using a BLI Octet RED96e instrument (Fortebio–Sartorius). Biotinylated KDM4A samples (20 μg/ml) in 10 mM Hepes, pH = 7.5, 150 mM NaCl, 0.5 mM TCEP, 5% glycerol, and 5% DMSO, were loaded onto super streptavidin (SSA) coated biosensors for at least 500 s to saturate the sensors, and then quenched with 10 µg/ml of biocytin for 60 s. Loaded SSA biosensors were then equilibrated in buffer for at least 600 s prior to baseline collection. Association was followed for at least 120 s or until plateau was reached, in a concentration range of 15.6–500 nM for the positive control, and of 3–200 µM for the negative control, and compound 1 and its analogues. Dissociation was followed for at least 300 s. All steps were performed at 25 °C with an agitation speed of 1000 rpm. QC6352 inhibitor [52] and N-[(2-chloro-6-fluorophenyl)methyl]-2-(2,5-dioxo-4-phenyl-4-propylimidazolidin-1-yl)-N-methylacetamide were used as positive and negative control, respectively. Two or three independent experiments were performed for each tested compound.
KD values were estimated by globally fitting the BLI response intensity (nm) as a function of compound concentration (μM) with the Octet Data Analysis Software, using a 1:1 Langmuir binding model.
Biotinylated KDM4A was obtained as follows. 17 nmol of purified recombinant KDM4A was mixed with 17 nmol of NHS-PEG4-Biotin (ThermoFisher Scientific 21,330) in 10 mM Hepes, pH = 7.5, 150 mM NaCl, 0.5 mM TCEP, 5% Glycerol. The solution was incubated at 4 °C for 2 h. Excess biotin was removed by 2 ml Zeba™ Spin Desalting Columns (7 K MWCO).

[3] = biological target: T1, KDM4A; assay: STD-NMR binding experiment; conditions: 1:50 receptor-to-ligand ratio, 7.5 µM KDM4A
Method: as §1
STD-NMR experiments STD-NMR spectra were recorded at 800 MHz on Bruker spectrometer and 298 K in 20 mM NaPh, pH = 7.5, 150 mM NaCl, 0.5 mM TCEP, 8% D2O, using 7.5 µM of KDM4A and 20- or 50-fold excess of each compound. A series of Gaussian-shaped pulses of 0.025 s each was employed with a total saturation time for the protein envelope of 2 s. Off-resonance frequency of d = − 40 ppm and on-resonance frequency of d = 0.07 ppm (protein aliphatic signals region) were applied. Spectra were processed and analyzed using Bruker TopSpin software.
Suppl. Fig. S5: STD-NMR analysis of compound 1. […] (i) The 1D NMR reference spectrum of compound 1. (ii) The STD-NMR spectrum of compound 1 in the presence of KDM4A. The NMR spectrum was recorded at 1:50 receptor-to-ligand ratio.

[4] = substrate: O=C(O)CCC(=O)C(=O)O; assay: purified protein, by the assay type; conditions: other: 2-OG titrated 50 µM to 0.01 µM, Michaelis-Menten plot

Molecule	IC50 [1]	inhibition at 50 µM [1]	Kd [2]	LE [2]	LLE [2]	Binding to KDM4A by STD-NMR [3]	Km [4]
O=C(O)c1ccnc(C(=O)NCc2cnco2)c1 [Compound 6b, 2-((Oxazol-5-ylmethyl)carbamoyl)isonicotinic acid]	25.1 µM and 25 µM	> 90%	9.5 ± 0.08 µM	0.39	4.50	–	–
COC(=O)c1ccnc(C(=O)NCc2ccccc2)c1 [Compound 5a, Methyl 2-(benzylcarbamoyl)isonicotinate]	–	< 50%	–	–	–	–	–
CCCNC(=O)c1cc(C(=O)O)ccn1 [Compound 6c, 2-(Propylcarbamoyl)isonicotinic acid]	41.6 µM	> 90%	10.7 ± 0.2 µM	0.48	4.18	–	–
COC(=O)c1ccnc(C(=O)NCc2nc3ccccc3n2C)c1 [Compound 5d, Methyl 2-(((1-methyl-1H-benzo[d]imidazole-2-yl)methyl)carbamoyl)isonicotinate]	–	< 50%	55 ± 2 µM	0.24	1.88	–	–
O=C(O)c1ccnc(C(=O)NCc2ccccc2)c1 [Compound 6a, 2-(benzylcarbamoyl)isonicotinic acid]	–	< 50%	45 ± 1 µM	0.33	2.49	–	–
CNC(=O)c1cc(C(=O)O)ccn1 [Compound 1, 2-(methylcarbamoyl)isonicotinic acid]	7.09 µM and 7.1 µM	–	15 ± 0.16 µM	0.51	4.59	detected compound 1 binding to KDM4A	–
B1	–	–	–	–	–	–	0.73 ± 0.16 µM
